Measurements: PubChem BioAssay AID330 (DTP/NCI, 2004)
Values joined by “and” are separate entries in the source; they are usually repeats but may differ in a detail not shown here. Equal values may be shown once. Toxic doses and inconclusive results are not listed. How the source made its calls: active means survival T/C of 150% or more; inactive means T/C below 125% in these data.

Test system: P388 leukemia ip, CD2F1 mice, survival T/C
Assay: NCI In Vivo Anticancer Drug Screen. Data for tumor model P388 Leukemia (intraperitoneal) in CD2F1 (CDF1) mice
Details: endpoint: median survival time, higher = longer survival
Summary of the method: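 Mice carrying the transplanted tumor received test compound or vehicle. Survival was recorded in each group, and the value is the treated-group measurement divided by that of the vehicle-treated control group.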

[1] = dose: 50.0 mg/kg/injection, schedule: Q01DX009 (ip), vehicle: saline
[2] = dose: 100.0 mg/kg/injection, schedule: Q01DX009 (ip), vehicle: saline
[3] = dose: 200.0 mg/kg/injection, schedule: Q01DX009 (ip), vehicle: saline
[4] = dose: 60.0 mg/kg/injection, schedule: Q01DX005 (ip), vehicle: Klucel (hydroxypropylcellulose) (HPC)
[5] = dose: 120.0 mg/kg/injection, schedule: Q01DX005 (ip), vehicle: Klucel (hydroxypropylcellulose) (HPC)
[6] = dose: 50.0 mg/kg/injection, schedule: Q01DX005 (ip), vehicle: saline with Tween-80
[7] = dose: 100.0 mg/kg/injection, schedule: Q01DX005 (ip), vehicle: saline with Tween-80

Measured: T/C

CS(C)(O)NC(N)=O
inactive: dose: 50.0 mg/kg/injection, schedule: Q01DX005 (ip), vehicle: DMSO 121 % of control | dose: 100.0 mg/kg/injection, schedule: Q01DX005 (ip), vehicle: DMSO 119 % of control | dose: 100.0 mg/kg/injection, schedule: Q01DX005 (ip), vehicle: other 121 % of control | dose: 200.0 mg/kg/injection, schedule: Q01DX005 (ip), vehicle: DMSO 114 % of control | dose: 400.0 mg/kg/injection, schedule: Q01DX005 (ip), vehicle: DMSO 124 % of control

CC(=O)c1ccc(-c2ccc(C(C)=O)cc2)cc1
inactive: dose: 50.0 mg/kg/injection, schedule: Q01DX009 (ip), vehicle: saline with Tween-80 96 % of control | dose: 100.0 mg/kg/injection, schedule: Q01DX009 (ip), vehicle: saline with Tween-80 100 % of control | dose: 200.0 mg/kg/injection, schedule: Q01DX009 (ip), vehicle: saline with Tween-80 87 % of control | dose: 400.0 mg/kg/injection, schedule: Q01DX009 (ip), vehicle: saline with Tween-80 87 % of control

COc1cccc2c1C(=O)c1c(O)c3c(c(O)c1C2=O)CC(O)(C(C)=O)CC3OC1CC(NC2CCCCC2)C(O)C(C)O1 (stereo not given)
inactive: dose: 6.25 mg/kg/injection, schedule: Q04DX003 (ip), vehicle: distilled water + Tween-80 100 % of control | dose: 12.5 mg/kg/injection, schedule: Q04DX003 (ip), vehicle: distilled water + Tween-80 104 % of control | dose: 25.0 mg/kg/injection, schedule: Q04DX003 (ip), vehicle: distilled water + Tween-80 102 % of control | dose: 50.0 mg/kg/injection, schedule: Q04DX003 (ip), vehicle: distilled water + Tween-80 102 % of control | dose: 100.0 mg/kg/injection, schedule: Q04DX003 (ip), vehicle: distilled water + Tween-80 104 % of control | dose: 200.0 mg/kg/injection, schedule: Q04DX003 (ip), vehicle: distilled water + Tween-80 108 % of control

CC[C@]1(O)C[C@H]2CN(CCc3c([nH]c4ccccc34)[C@@](C(=O)OC)(c3cc4c(cc3OC)N(C)[C@H]3[C@@](O)(C(=O)OC)[C@H](OC(C)=O)[C@]5(CC)C=CCN6CC[C@]43[C@@H]65)C2)C1
inactive: dose: 0.03 mg/kg/injection, schedule: Q04DX003 (ip), vehicle: water 100 % of control | dose: 0.75 mg/kg/injection, schedule: Q01DX009 (ip), vehicle: saline 91 % of control | dose: 0.8 mg/kg/injection, schedule: Q01DX009 (ip), vehicle: saline 90 % of control | dose: 1.44 mg/kg/injection, schedule: Q04DX003 (ip), vehicle: saline 97 % of control | dose: 2.0 mg/kg/injection, schedule: Q04DX003 (oral), vehicle: water 110 % of control | dose: 3.2 mg/kg/injection, schedule: Q04DX003 (ip), vehicle: water 100 % of control | dose: 500.0 micrograms/kg/injection, schedule: Q01DX009 (ip), vehicle: water 92 % of control
active: dose: 0.13 mg/kg/injection, schedule: Q01DX005 (ip), vehicle: saline 172 % of control | dose: 0.13 mg/kg/injection, schedule: Q01DX009 (ip), vehicle: saline 162 % of control | dose: 0.16 mg/kg/injection, schedule: Q01DX009 (ip), vehicle: saline 160 % of control | dose: 0.25 mg/kg/injection, schedule: Q01DX005 (ip), vehicle: saline 202 % of control | dose: 0.38 mg/kg/injection, schedule: Q04DX003 (ip), vehicle: saline 162 % of control | dose: 0.4 mg/kg/injection, schedule: Q04DX003 (ip), vehicle: water 160 % of control | dose: 0.45 mg/kg/injection, schedule: Q01DX009 (ip), vehicle: saline 168 % of control | dose: 0.5 mg/kg/injection, schedule: Q01DX001 (ip), vehicle: saline 150 % of control | dose: 0.5 mg/kg/injection, schedule: Q01DX005 (ip), vehicle: saline 163 % of control and 177 % of control | dose: 0.5 mg/kg/injection, schedule: Q04DX003 (ip), vehicle: saline 169 % of control | dose: 0.52 mg/kg/injection, schedule: Q04DX002 (ip), vehicle: saline 157 % of control | dose: 0.63 mg/kg/injection, schedule: Q04DX003 (ip), vehicle: saline 157 % of control and 248 % of control | dose: 0.64 mg/kg/injection, schedule: Q04DX002 (ip), vehicle: saline 179 % of control | dose: 0.65 mg/kg/injection, schedule: Q04DX003 (ip), vehicle: saline 173 % of control | dose: 0.67 mg/kg/injection, schedule: Q04DX003 (ip), vehicle: saline 185 % of control | dose: 0.75 mg/kg/injection, schedule: Q04DX003 (ip), vehicle: saline 198 % of control | dose: 0.8 mg/kg/injection, schedule: Q04DX003 (ip), vehicle: water 173 % of control and 185 % of control | dose: 0.86 mg/kg/injection, schedule: Q04DX002 (ip), vehicle: saline 196 % of control | dose: 1.0 mg/kg/injection, schedule: Q01DX001 (ip), vehicle: Klucel (hydroxypropylcellulose) (HPC) 163 % of control | dose: 1.0 mg/kg/injection, schedule: Q01DX001 (ip), vehicle: saline 162 % of control | dose: 1.0 mg/kg/injection, schedule: Q04DX003 (ip), vehicle: water 150 % of control | dose: 1.08 mg/kg/injection, schedule: Q04DX002 (ip), vehicle: saline 199 % of control | dose: 1.08 mg/kg/injection, schedule: Q04DX003 (ip), vehicle: saline 186 % of control and 201 % of control | dose: 1.2 mg/kg/injection, schedule: Q04DX003 (ip), vehicle: saline 189 % of control | dose: 1.44 mg/kg/injection, schedule: Q04DX002 (ip), vehicle: saline 197 % of control and 198 % of control | dose: 1.6 mg/kg/injection, schedule: Q04DX003 (ip), vehicle: water 228 % of control and 229 % of control and 234 % of control | dose: 1.8 mg/kg/injection, schedule: Q04DX002 (ip), vehicle: saline 218 % of control | dose: 1.8 mg/kg/injection, schedule: Q04DX003 (ip), vehicle: saline 213 % of control and 220 % of control | dose: 2.0 mg/kg/injection, schedule: Q01DX001 (ip), vehicle: clinical formulation 150 % of control | dose: 2.4 mg/kg/injection, schedule: Q04DX002 (ip), vehicle: saline 376 % of control | dose: 3.33 mg/kg/injection, schedule: Q04DX003 (ip), vehicle: saline 240 % of control | dose: 4.0 mg/kg/injection, schedule: Q01DX001 (ip), vehicle: Klucel (hydroxypropylcellulose) (HPC) 216 % of control | dose: 4.0 mg/kg/injection, schedule: Q01DX001 (ip), vehicle: clinical formulation 171 % of control and 177 % of control | dose: 4.0 mg/kg/injection, schedule: Q01DX001 (ip), vehicle: saline 162 % of control and 200 % of control | dose: 8.0 mg/kg/injection, schedule: Q01DX001 (ip), vehicle: Klucel (hydroxypropylcellulose) (HPC) 177 % of control | dose: 8.0 mg/kg/injection, schedule: Q01DX001 (ip), vehicle: clinical formulation 190 % of control | dose: 125.0 micrograms/kg/injection, schedule: Q01DX009 (ip), vehicle: water 172 % of control | dose: 250.0 micrograms/kg/injection, schedule: Q01DX009 (ip), vehicle: water 164 % of control

N[N+]1(CCS(N)(=O)=O)CCOCC1
inactive: [1] 110 % of control | [2] 91 % of control | [3] 96 % of control

COc1ccc2c(c1)CCC(c1nc3ccc(Cl)cc3[nH]c1=O)=C2O
inactive: [4] 101 % of control | [5] 92 % of control | dose: 240.0 mg/kg/injection, schedule: Q01DX005 (ip), vehicle: Klucel (hydroxypropylcellulose) (HPC) 91 % of control

CCCC1C2C=CC(C(S(=O)(=O)c3ccccc3)C2)N1C(=O)OCC (stereo not given)
inactive: dose: 25.0 mg/kg/injection, schedule: Q01DX005 (ip), vehicle: saline with Tween-80 100 % of control | [6] 103 % of control | [7] 102 % of control | dose: 200.0 mg/kg/injection, schedule: Q01DX005 (ip), vehicle: saline with Tween-80 102 % of control

[O]=[Ge]=[O]
inactive: [1] 111 % of control | [2] 104 % of control | [3] 111 % of control

C=CCC(CCC)(C(=O)Nc1ccc2nc(C)cc(N)c2c1)C(=O)Nc1ccc2nc(C)cc(N)c2c1
inactive: [6] 100 % of control | [7] 93 % of control

CNC(=O)Nc1[nH]c(=O)ncc1I
inactive: dose: 30.0 mg/kg/injection, schedule: Q01DX005 (ip), vehicle: Klucel (hydroxypropylcellulose) (HPC) 100 % of control | [4] 96 % of control | [5] 117 % of control

CCCCCCCC[N+](C)([O-])CCCCCC[N+](C)([O-])CCCCCCCC (stereo not given)
inactive: [1] 99 % of control | [2] 94 % of control
